Experimental data taken from patent US20150079000A1, “Labelled Quinoxaline Derivatives as Multimodal Radiopharmaceuticals and Their Precursors” (INSTITUT NATIONAL DE LA SANTET DE LA RECHERCHE MEDICALE, priority 2012, published 2015).

Assay: Metabolism of compound [125I](1)
Type: in vivo, mice
Method: 24 primary melanoma bearing mice were intravenously injected with 2.2 MBq of [^1251](1) and sacrificed 1 h, 3 h, 6 h, 24 h, 72 h and 10 days after tracer injection. To determine the metabolic stability of [^1251](1), blood, tumour, eyes, liver, kidney and urine samples were collected at each time point […]. Faeces were collected between 0-24 h and 24-48 h. Blood was immediately diluted in 5 mL of methanol/NH4OH 99.8:0.2 and centrifuged for 5 min at 3,000 rpm. Tumour, eyes, liver, kidneys and faeces were suspended in 5 mL of methanol/NH4OH 99.8:0.2, homogenized using GentleMACS™ dissociator (Miltenyi Biotec, Bergisch Gladbach, Germany) and centrifuged for 5 min at 3,000 rpm (repeated 2 times). Urines were analysed without any treatment. The extraction efficiency was determined by measuring the radioactivity of supernatants and precipitates. Supernatants were passed through a 0.22 μm Millipore filter and then concentrated to a volume between 200 and 500 μL before injection (duplicate) onto the analytical HPLC(C18 column; solvent A: H2O (0.2% NH4OH); solvent B: MeOH (0.2% NH4OH); Gradient elution: 0-5 min: 90 to 70% of A (Q=0.5 mL·min^−1); 5-30 min: 70 to 20% of A (Q=0.9 mL·min^−1); 30-32 min: 10% of A (Q=0.9 mL·min^−1)).

[1] = Feces, (grid: 3 h; faeces collected 24-48 h)
[2] = Feces, first value column (grid: 1 h; faeces collected 0-24 h)
[3] = Urine, 1 h after [125I](1) injection
[4] = Urine, 3 h after [125I](1) injection
[5] = Urine, 6 h after [125I](1) injection
[6] = Urine, 24 h after [125I](1) injection
[7] = Urine, 72 h after [125I](1) injection
[8] = Blood, 1 h after [125I](1) injection
[9] = Blood, 3 h after [125I](1) injection
[10] = Blood, 6 h after [125I](1) injection
[11] = Kidney, 1 h after [125I](1) injection
[12] = Kidney, 3 h after [125I](1) injection
[13] = Kidney, 6 h after [125I](1) injection
[14] = Liver, 1 h after [125I](1) injection
[15] = Liver, 3 h after [125I](1) injection
[16] = Liver, 6 h after [125I](1) injection
[17] = Liver, 24 h after [125I](1) injection

| % of radioactivity [1] [%] | % of radioactivity [2] [%] | % of radioactivity [3] [%] | % of radioactivity [4] [%] | % of radioactivity [5] [%] | % of radioactivity [6] [%] | % of radioactivity [7] [%] | % of radioactivity [8] [%] | % of radioactivity [9] [%] | % of radioactivity [10] [%] | % of radioactivity [11] [%] | % of radioactivity [12] [%] | % of radioactivity [13] [%] | % of radioactivity [14] [%] | % of radioactivity [15] [%] | % of radioactivity [16] [%] | % of radioactivity [17] [%] | also measured | SMILES |
| --- | --- | --- | --- | --- | --- | --- | --- | --- | --- | --- | --- | --- | --- | --- | --- | --- | --- | --- |
| 3.5 ± 0.7 | 3.0 ± 0.0 | 30.3 ± 2.4 | 24.0 ± 0.0 | 21.0 ± 0.0 | 6.5 ± 0.7 | 0.0 ± 0.0 |  |  |  |  |  |  |  |  |  |  |  | O=C(O)CNC(=O)c1cnc2cc([125I])ccc2n1 [Acid [^125I]II] |
| 8.0 ± 1.4 | 7.5 ± 0.7 | 17.2 ± 3.1 | 20.0 ± 1.4 | 16.0 ± 1.4 | 3.5 ± 0.7 | 0.0 ± 0.0 | 21.5 ± 2.1 | 11.5 ± 0.7 | 11.0 ± 0.0 | 29.0 ± 1.4 | 34.2 ± 0.7 | 43.0 ± 1.4 |  |  |  |  |  | O=C(O)c1cnc2cc([125I])ccc2n1 [Acid [^125I]I] |
| 2.5 ± 0.7 | 6.5 ± 0.7 |  |  |  |  |  |  |  |  |  |  |  |  |  |  |  |  | CCNCCNC(=O)c1cnc2cc([125I])ccc2n1 [Amine [^125I]II] |
| 14.0 ± 0.0 | 16.0 ± 0.0 | 6.6 ± 0.6 | 13.0 ± 1.4 | 3.5 ± 4.9 | 0.0 ± 0.0 | 0.0 ± 0.0 |  |  |  | 18.5 ± 0.7 | 11.7 ± 0.7 | 0.0 ± 0.0 | 26.0 ± 0.0 | 45.5 ± 2.1 | 55.0 ± 2.8 | 70.5 ± 0.7 |  | NCCNC(=O)c1cnc2cc([125I])ccc2n1 [Amine [^125I]I] |
| 27.0 ± 1.4 | 8.0 ± 0.0 | 25.7 ± 3.2 | 30.5 ± 0.7 | 51.0 ± 4.2 | 85.0 ± 1.4 | 99.0 ± 0.0 | 76.5 ± 0.7 | 88.5 ± 0.7 | 85.5 ± 4.9 | 20.5 ± 0.7 | 37.2 ± 2.2 | 57.0 ± 1.4 | 20.0 ± 1.4 | 21.5 ± 4.9 | 29.5 ± 0.7 | 29.5 ± 0.7 | % of radioactivity (Eyes, 1 h after [125I](1) injection): 9.5 ± 0.7%; % of radioactivity (Eyes, 3 h after [125I](1) injection): 5.5 ± 2.1%; % of radioactivity (Eyes, 6 h after [125I](1) injection): 4.0 ± 5.7%; % of radioactivity (Eyes, 24 h after [125I](1) injection): 0.0 ± 0.0%; % of radioactivity (Eyes, 72 h after [125I](1) injection): 0.0 ± 0.0%; % of radioactivity (Eyes, 10 d after [125I](1) injection): 0.0 ± 0.0%; % of radioactivity (Tumour, 1 h after [125I](1) injection): 13.0 ± 1.4%; % of radioactivity (Tumour, 3 h after [125I](1) injection): 6.5 ± 0.7%; % of radioactivity (Tumour, 6 h after [125I](1) injection): 9.0 ± 0.0%; % of radioactivity (Tumour, 24 h after [125I](1) injection): 0.0 ± 0.0%; % of radioactivity (Tumour, 72 h after [125I](1) injection): 0.0 ± 0.0%; % of radioactivity (Tumour, 10 d after [125I](1) injection): 0.0 ± 0.0% | [125IH] [[^125I]I^−] |
